Patent publication US11602538B2, “Prophylaxis and treatment of cognitive dysfunction and decline” (The Florey Institute of Neuroscience and Mental Health, priority 2017, dated 2023)
“Also recorded” adds a separate entry of the source.

Columns and labels:
[1] = tested on: mice receiving a controlled cortical impact traumatic brain injury (TBI); experiment: Morris water maze after controlled cortical impact TBI; type: in vivo, mouse; settings: treated post-TBI daily by oral gavage, 2% in SSV, vs SSV controls
Protocol: Trehalose (Sigma) has a generous safety profile in rodents and humans has been posted as “Generally Regarded as Safe” (GRAS) for human consumption by the U.S. Federal Drug Administration (FDA) in October 2000, is used as a food additive, and is also an excipient in many pharmaceuticals, making trehalose a safe, natural and pharmaceutically accepted product. In this study, it was supplied as a 2% w/v in standard suspension vehicle (SSV) solution via oral gavage at a dose of 0.1 ml to 10 g body weight. SSV solution was purchased from Sigma and contains 0.9% sodium chloride (NaCl), 0.5% Sodium carboxymethylcellulose (Na-CMC), 0.5% Benzyl alcohol, 0.4%, Tween 80 (polyoxyethylenesorbitan monooleate).
(§1) Surgical procedures and controlled cortical impact (CCI) have been previously described (see Portbury et al., 2015, Metallomics. doi:10.1039/c5mt00234f). Briefly, 3 month-old male C57B16 mice were anesthetized via intraperitoneal injection of 100 mg/kg ketamine and 10 mg/kg xylazine. A 10 mm mid-line incision was made over the skull, and the skin and fascia were reflected to make a 4 mm craniotomy on the central aspect of the right parietal bone using a motorized drill. Upon animal positioning in a stereotaxic frame a CCI injury was subsequently delivered (3 m/s velocity with a 1.5 mm penetration depth).
(§2) Three groups of animals were subjected to TBI as separate experiments. The first group of animals were treated daily with 2% trehalose in SSV solution at 0.1 ml per 10 g body weight via oral gavage for a period of 31 days or SSV solution following the TBI. […] The second groups of animals underwent an identical dosing procedure but were treated with either SSV or maltose as a disaccharide control for trehalose. […] A further group of animals was pre-treated with trehalose prior to TBI. These pre-treated mice received a daily treatment of 2% trehalose in SSV solution at 0.1 ml per 10 g body weight via oral gavage for 7 days prior to TBI. Following TBI, these animals received SSV solution only for the remaining duration of the experiment.
(§3) The Morris Water Maze (MWM) was used to assess the effect of trehalose on spatial learning and memory function following TBI. The pre-training acclimation day of the water maze was performed on day 23 of dosing, followed by six days of place discrimination training of four 90 second trials per day, conducted on days 24-29 of dosing. The probe trial was performed 24 hours after training on dosing day 30 to assess retention of the task. Data was analysed using the Ethovision automated tracking system. Animals were culled on day 31. Both experimental groups adhered to the same time lines of behavioral assessment. The open field assessment was performed on day 19 of dosing and the Y-maze assessment was performed on day 21 of dosing.
(§4) For LA-ICPMS samples, statistical analysis was carried out in Prism 7 (Graph-Pad) software. Analysis was carried out with a two-tailed t test with the level of significance set at p=0.05. For multiple comparisons two-way ANOVA was used to identify significant differences between ipsilateral and contralateral ROI's. For western blot analysis, images were produced using Image Studio Lite (version 4.0.21, LI-COR Biosciences) and subsequent statistical analysis was carried out in Prism 7 (Graph-Pad). All behavioral analysis was performed using Prism 7 (Graph-Pad).

[2] = tested on: mice receiving a controlled cortical impact traumatic brain injury (TBI); experiment: Y-maze assessment after TBI; type: in vivo, mouse; settings: treated post-TBI, dosing day 21; vs SSV
Protocol: as §1, §2, §3, §4

With `OC[C@H]1O[C@H](O[C@H]2[C@H](O)[C@@H](O)C(O)O[C@@H]2CO)[C@H](O)[C@@H](O)[C@@H]1O` (mixture of isomers) [maltose] the “escape latency / acquisition of the task (learning component), Morris water maze” value ([1]; 0.1 ml per 10 g, training on dosing days 24-29) was “no such improvement; also recorded: no significant differences”, the “probe day 24-hour task retention (recall component), Morris water maze” value ([1]; dosing day 30) was “no such improvement; also recorded: no significant differences” and the “five-minute frequency of visits into the novel arm, Y-maze” value [2] was “no significant preference for the novel arm; also recorded: no significant improvement”. The “one-minute duration of time in the novel arm, Y-maze” value [2] was “no significant improvement” and the “one-minute frequency of visits into the novel arm, Y-maze” value [2] was “no significant preference for the novel arm; also recorded: no significant improvement”.
